Patent US20140356383A1, “ADMINISTRATION OF AN ANTI-GCC ANTIBODY-DRUG CONJUGATE AND A DNA DAMAGING AGENT IN THE TREATMENT OF CANCER” (priority 2013, published 2014)
Square brackets hold non-standard residues; d marks the D form. Peptide text beside a SMILES is read from it. * marks the point of attachment. Dolaproine = CO[C@@H]([C@@H]1CCCN1)[C@@H](C)C(=O)O; Hexanoyl(6-maleimido) = O=C1C=CC(=O)N1CCCCCC(=O)*; Dil = CC[C@H](C)[C@H](NC)[C@@H](CC(=O)O)OC; X1 = C[C@@H](N*)[C@@H](O)c1ccccc1; NMeV = CN[C@H](C(=O)O)C(C)C

How the values were obtained:
PHTX-21c s.c. xenograft [1] = test: MLN0264 and 5-Fluorouracil in PHTX-21C s.c. xenografts (Study CPGC-11-EF01); type: in vivo, CB-17 SCID mice; conditions: for dAUC: 4 days off, reference vehicle
Experimental: (§1) Tumor volume was calculated using the formula: […]

PHTX-11c s.c. xenograft = test: MLN0264 and CPT-11 in PHTX-11c s.c. xenografts (Study CPGC-12-EF01); conditions: W1-W3
PHTX-09c s.c. xenograft [2] = test: 5F9 vcMMAE and CPT-11 in PHTX-09C s.c. xenografts (Study CPGC-11-EF07)
PHTX-21c s.c. xenograft [3] = test: MLN0264 and CPT-11 in PHTX-21C s.c. xenografts (Study CPGC-11-EF04); conditions: PHTX-21c
PHTX-17c s.c. xenograft = test: MLN0264 and CPT-11 in PHTX-17C s.c. xenografts (Study CPGC-11-EF06); type: in vivo, CB-17 SCID mice; conditions: PHTX-17c
Experimental: as §1

293 GCC#2 tumors = test: Efficacy study with auristatin conjugates in 293 GCC#2 tumors, q7d×4; type: in vivo, SCID mice; set-up: TGI / TGD: unit not given here; conditions: for CR/PR: complete response/partial response; for T/C: treatment/control; for TGD: tumor growth delay
Experimental: 293 GCC#2 tumor-bearing SCID mice were treated with 5F9 conjugates with vc MMAE, vcMMAF or mcMMAF at three doses in comparison with 209 conjugates of these toxins or with free toxins or vehicle control. Doses were administered iv on a q7d×4 schedule. Tumors were harvested at days 3, 7, 10, 13 and 17. […] Table 18 provides a summary of the results (TGI=tumor growth inhibition, T/C=treatment/control, TGD=tumor growth delay, CR/PR=complete response/partial response; p value=measure to judge statistical significance, NS=not significant).

[4] = test system: PHTX-9c primary human colon tumor xenograft; test: Single agent antitumor activity in PHTX-9c (PHTX-09c) primary human colon tumor xenograft
Experimental: Female CB-17 SCID mice (eight weeks old) were inoculated subcutaneously (SC) into the flank with PHTX-9c tumor fragments (2 mm×2 mm). Tumor growth was monitored twice per week using vernier calipers and the mean tumor volume was calculated using the formula (0.5×[length×width^2]). When the mean tumor volume reached approximately 150 mm^3 (Study A) or 160 mm^3 (Study B), animals were randomized into treatment groups (n=10/group for Study A and n=9/group for Study B).
Doses were administered on Days 1, 8, and 15 for the QW schedule and Days 1, 4, 8, 11, 15, and 18 for the BIW schedule. […] The equivalent dose of linker+MMAE is 4% of the 5F9-vcMMAE dose. These calculations are based on a mean 3.9 MMAE molecules per antibody and a free antibody molecular weight of 150 kD. Actual antibody molecular weight will vary slightly due to degree of glycosylation.
Tumor volume and body weight were measured twice weekly and were continued beyond the treatment period to measure regrowth kinetics, as evidenced by tumor growth delay (TGD). Tumor volume measurements were continued until tumor volume reached 10% of the body weight in a single mouse within a treatment group, at which time the group was terminated. The percentage of tumor growth inhibition (TGI) ([mean tumor volume of the control group—mean tumor volume of a treated group]/mean tumor volume of the control group; a T/C ratio) was determined on Day 20. The T/C ratios across a treatment group were compared to the T/C ratios of the control group using a two-tailed Welch's t-test.
The differences in the tumor growth trends over time between pairs of treatment groups were assessed using linear mixed effects regression models. These models account for the fact that each animal was measured at multiple time points. A separate model was fit for each comparison, and the areas under the curve (AUC) for each treatment group were calculated using the predicted values from the model. The percent decrease in AUC (dAUC) relative to the reference group was then calculated.
The 5F9 vcMMAE immunoconjugate was tested for single agent anti-tumor activity in the four primary human tumor xengraft models at varying concentrations in order to explore whether GCC expression levels played a role in tumor sensitivity. […] Free-MMAE was also used as a negative control.

[5] = Free-MMAE levels in serum vs. tumor after 5F9 vcMMAE; type: in vivo, mice; set-up: AUCinf Serum / AUCinf Tumor: concentration or dose not given beside the values; conditions: for AUCinf Serum / AUCinf Tumor: free MMAE after 5F9 vcMMAE; for Tumor/Serum: ratio of MMAE AUCinf
Experimental: Thus, the 5F9 vcMMAE immunoconjugate was confirmed to bind to GCC in the refractory PHTX-11c model. Free-MMAE levels in serum vs. tumor were also assessed to ensure the 5F9 vcMMAE immunoconjugate was being processed by the tumors (i.e., that the immunoconjugate was being internalized and that MMAE was being cleaved). A comparison of free-MMAE serum and tumor levels in the MMAE-refractory PHTX-11c model and the sensitive PHTX-09c and HEK293 GCC #2 models is shown Table 27 below. The presence of drug was confirmed within the tumors during dosing and post-dosing. Additionally, the free-MMAE levels in this tumor model were the same as the levels seen in tumor xenograft models that were sensitive to the immunoconjugate.

PHTX-09c s.c. xenograft [6] = test: 5F9 vcMMAE and cisplatin in PHTX-09c s.c. xenografts (Study CPGC-11-EF05)
[7] = test system: PHTX-215 Pa s.c. xenograft; test: 5F9 vcMMAE and gemcitabine in PHTX-215 Pa s.c. xenografts (Study CPGC-13-EF10); type: in vivo, CB-17 SCID mice; conditions: for dAUC (percent decrease in treatment AUC relative to reference group V, vehicle): PHTX-215 Pa s.c. xenograft, CB-17 SCID mice
Experimental: (§2) Day D0 was the first day of treatment.
as §1
Table 77A the annotation table for group symbols. […] A negative dAUC is interpreted as an increase in AUC relative to the reference. It is important to evaluate not only the P value, but also the dAUC. Comparisons with significant P values, but small dAUC values, may not be of interest.

[8] = test system: PHTX-249 Pa s.c. xenograft; test: 5F9 vcMMAE and gemcitabine in PHTX-249 Pa s.c. xenografts (Study CPGC-13-EF08); type: in vivo, CB-17 SCID mice; conditions: for dAUC: reference vehicle
Experimental: 264.4 ul stock Gemcitabine into 3135.6 ul NS.
as §2, §1
(§3) A negative dAUC is interpreted as an increase in AUC relative to the reference. It is important to evaluate not only the P value, but also the dAUC. Comparisons with significant P values, but small dAUC values, may not be of interest.

[9] = test system: PHTX-249 Pa s.c. xenograft; test: 5F9 vcMMAE and gemcitabine in PHTX-249 Pa s.c. xenografts (Study CPGC-13-EF05); type: in vivo, CB-17 SCID mice; conditions: reference vehicle
Experimental: as §2, §1, §3

[10] = CPT-11 10 mg/kg 2 d on 5 off i.v.
[11] = CPT-11 15 mg/kg 2 d on 5 off i.v.
[12] = PHTX-09c, CPT-11 10 mg/kg D1, 2 ×3 weeks
[13] = CPT-11 10 mg/kg D1, D2 per week
[14] = CPT-11 15 mg/kg D1, D2 per week
[15] = Study A, 0.075 mg/kg IV QW × 3 doses
[16] = Study A, 0.15 mg/kg IV QW × 3 doses
[17] = Study B, 0.135 mg/kg IV QW × 3 doses
[18] = Study B, 0.18 mg/kg IV QW × 3 doses
[19] = PHTX-215 Pa, immunoconjugate plus gemcitabine 15 mg/kg on days 1 and 3, or single agent gemcitabine

## O=c1[nH]cc(F)c(=O)[nH]1 [5-FU, 5-Fluorouracil, reference compound]
PHTX-21c s.c. xenograft [1]; PHTX-21c, 15 mg/kg and 25 mg/kg, 3 day on/4 day off
  single agent anti-tumor activity: relatively low anti-tumor activity
PHTX-21c s.c. xenograft [1]; group E: 5-Fu 15 mg/kg 3 days on
  dAUC: 44.1%
PHTX-21c s.c. xenograft [1]; group F: 5-Fu 25 mg/kg 3 days on
  dAUC: 52.6%

## CCc1c2c(nc3ccc(OC(=O)N4CCC(N5CCCCC5)CC4)cc13)-c1cc3c(c(=O)n1C2)COC(=O)[C@]3(O)CC [CPT-11, irinotecan]
PHTX-11c s.c. xenograft; [10]
  Days to 1000 mm^3: >18 days
  T/C: 0.34
  TGI: 65.9%
PHTX-11c s.c. xenograft; [11]
  Days to 1000 mm^3: >18 days
  T/C: 0.31
  TGI: 69.2%
PHTX-11c s.c. xenograft; CPT-11 30 mg/kg (D1 QW) i.v.
  Days to 1000 mm^3: >18 days
  T/C: 0.39
  TGI: 61.1%
PHTX-09c s.c. xenograft [2]; PHTX-09c (FIGS. 8B and 8C)
  single agent activity: moderate
PHTX-09c s.c. xenograft [2]; [12]
  Days to 1000 mm^3: >23 days
  T/C: 0.4
  TGI: 60.3%
PHTX-21c s.c. xenograft [3]; [13]
  Days to 1000 mm^3: >15 days
  T/C: 0.22
  TGI: 78.4%
PHTX-21c s.c. xenograft [3]; [14]
  Days to 1000 mm^3: >15 days
  T/C: 0.16
  TGI: 84.4%
PHTX-21c s.c. xenograft [3]; CPT-11 30 mg/kg D1 QW
  Days to 1000 mm^3: >15 days
  T/C: 0.37
  TGI: 62.8%
PHTX-21c s.c. xenograft [3]; the two lower doses administered (10 and 15 mg/kg)
  single agent anti-tumor activity: moderate to high single agent activity
PHTX-17c s.c. xenograft; CPT-11 10 mg/kg QD 2on 5off
  Days to 1000 mm^3: >17 days
  T/C: 0.28
  TGI: 71.7%
PHTX-17c s.c. xenograft; CPT-11 15 mg/kg 2 on 5off
  Days to 1000 mm^3: >17 days
  T/C: 0.22
  TGI: 77.7%
PHTX-17c s.c. xenograft; CPT-11 30 mg/kg QW
  Days to 1000 mm^3: >17 days
  T/C: 0.4
  TGI: 60.5%

## CC[C@H](C)[C@@H]([C@@H](CC(=O)N1CCC[C@H]1[C@H](OC)[C@@H](C)C(=O)N[C@@H](Cc1ccccc1)C(=O)O)OC)N(C)C(=O)[C@@H](NC(=O)[C@H](C(C)C)N(C)C(=O)CCCCCN1C(=O)C=CC1=O)C(C)C [Free mcMMAF, reference compound] ({Hexanoyl(6-maleimido)}-[NMeV]V[Dil][Dolaproine]F-OH)
293 GCC#2 tumors; 150 μg/kg iv q7d×4
  TGI: −3.4
  CR/PR: 0
  T/C: 1.03
  TGD: −1.3

## CC[C@H](C)[C@@H]([C@@H](CC(=O)N1CCC[C@H]1[C@H](OC)[C@@H](C)C(=O)N[C@H](C)[C@@H](O)c1ccccc1)OC)N(C)C(=O)[C@@H](NC(=O)[C@@H](NC)C(C)C)C(C)C [MMAE, monomethyl auristatin E, reference compound] (H-[NMeV]V[Dil][Dolaproine]-X1)
293 GCC#2 tumors; 300 μg/kg iv q7d×4
  TGI: 35.6
  CR/PR: 0
  T/C: 0.64
  TGD: 2
[4]; [15]
  BW change (mean maximum percent): 8.3%
  TGD: 1.0 days
[4]; [16]
  BW change (mean maximum percent): 10.8%
  TGD: 2.0 days
[4]; [17]
  BW change (mean maximum percent): 9.3%
  TGD: 0.2 days
[4]; [18]
  BW change (mean maximum percent): −2.3%
  TGD: 8.6 days
[4]; Study B, 0.18 mg/kg IV QW × 3 doses, Day 20, 0.18 mg/kg
  TGI: 50.4 (p > 0.001) %
[4]; Study B, day 7, 0.18 mg/kg MMAE group and 0.938 mg/kg 5F9-vcMMAE group
  greatest maximum body weight loss during treatment period: 2.3%
[5]; 293 GCC #2 model
  AUCinf Serum: 56.3 ng·h/mL
  AUCinf Tumor: 24953 ng·h/mL
  Tumor/Serum: 443
[5]; PHTX-9C model
  AUCinf Serum: 68.3 ng·h/mL
  AUCinf Tumor: 8670 ng·h/mL
  Tumor/Serum: 127
[5]; PHTX-11C model
  AUCinf Serum: 44.1 ng·h/mL
  AUCinf Tumor: 13400 ng·h/mL
  Tumor/Serum: 304

## N.N.[Cl][Pt][Cl] [cisplatin]
PHTX-09c s.c. xenograft [6]; 4 mg/kg once weekly
  number of doses tolerated: 2 doses
PHTX-09c s.c. xenograft [6]; 6 mg/kg once weekly
  number of doses tolerated: 1 dose
PHTX-09c s.c. xenograft [6]; PHTX-09c, cisplatin alone
  body weight loss: > 15%
PHTX-09c s.c. xenograft [6]; group C: cisplatin 4 mg/kg QW x2, reference vehicle
  dAUC: 50.6%

## Nc1ccn([C@@H]2O[C@H](CO)[C@@H](O)C2(F)F)c(=O)n1 [gemcitabine]
[7]; [19]
  TGI: 69%
  tumor growth delay: 22.7 days
  tumor regressions (animals): no tumor regressions
[7]; group C: Gemcitabine 15 mg/kg IV D1,D3/week x3
  dAUC (percent decrease in treatment AUC relative to reference group V, vehicle): 61.0%
[7]; group F: Gemcitabine 20 mg/kg IV BIW
  dAUC (percent decrease in treatment AUC relative to reference group V, vehicle): 65.2%
[8]; PHTX-249 Pa (Studies CPGC-13-EF05/EF08), 5F9 vcMMAE 7.5 mg/kg, gemcitabine 15 mg/kg on days 1 and 3, alone or combined
  tumor regressions (animals): no tumor regressions
[8]; PHTX-249 Pa, 5F9 vcMMAE plus gemcitabine 15 mg/kg on days 1 and 3 vs single agent
  tumor growth delay: 17 days
[8]; group D: Gemcitabine 15 mg/kg BIW
  dAUC: 52.4%
[8]; group E: Gemcitabine 15 mg/kg D1,D3/week
  dAUC: 76.9%
[9]; group B: Gemcitabine 15 mg/kg BIW
  dAUC: 46.0%
[9]; group C: Gemcitabine 20 mg/kg BIW
  dAUC: 46.7%
